Laboratory results from PubChem BioAssay (NCI).
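A five-concentration, 48-hour dose response in 96-well plates underlies each endpoint, interpolated linearly between surrounding concentrations. TGI denotes the concentration required for complete inhibition of growth.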

Tests used:
Assay in all cases: NCI anticancer screen, dose series, 48 h
[1] = tested on: A549 NSCLC
[2] = tested on: DLD-1 colon
[3] = tested on: HCC-2998 colon
[4] = tested on: KM20L2 colon
[5] = tested on: OVCAR-3 ovarian
[6] = tested on: SF-268 CNS
[7] = tested on: SN12C renal
[8] = tested on: UACC-62 melanoma
[9] = tested on: BT-549 breast
[10] = tested on: MDA-N

SMILES	TGI [1] [µM]	TGI [2] [µM]	TGI [3] [µM]	TGI [4] [µM]	TGI [5] [µM]	TGI [6] [µM]	TGI [7] [µM]	TGI [8] [µM]	TGI [9] [µM]	TGI [10] [µM]
Nc1ccc2ncc(Nc3ccc(Cl)c(Cl)c3)nc2c1	> 100	> 100	32.8	> 100	40.1	> 100	> 100	50.9	–	–
Cc1[nH]n(C(=O)c2ccc(Cl)cc2)c(=O)c1/C=C1\C(O)=CC(=O)c2ccccc21	> 100	> 100	> 100	> 100	> 100	> 100	> 100	> 100	–	–
CN1OC(CO)CC12C1CC3CC(C1)CC2C3 (stereo not given)	> 100	> 100	> 100	> 100	> 100	> 100	> 100	> 100	–	–
CCCCCCCCCCCC1=C(O)C(=O)C=C(O)C1=O	13.4	51.9	33	35.4	14.4	18	12.9	10.5	–	–
NS(=O)(=O)C1CCCCC1C(=O)NNC(=O)C(=O)Nc1nc(=S)[nH][nH]1 (stereo not given)	> 100	> 100	> 100	> 100	–	> 100	> 100	> 100	–	–
CC(C)(C)OC(=O)NCCCCC1NC(=O)[C@@H]2Cc3c([nH]c4ccccc34)C(c3ccccc3)N2C1=O (stereo not given in full)	> 100	–	40.3	–	49.2	> 100	79.6	95.6	68.4	> 100
CCOC(=O)N/N=C(/N)Cc1ccc(Cl)cc1	> 100	–	> 100	–	> 100	> 100	> 100	> 100	> 100	> 100
COc1ccc(/[N+]([O-])=C/c2ccccc2OC(=S)S)cc1	> 100	–	> 100	–	> 100	> 100	56.9	> 100	66.6	63.4
CCOC(=O)Oc1ccc2[nH]c3c(C)cc(N)c(C)c3c2c1	> 100	> 100	> 100	–	> 100	> 100	> 100	–	–	–
CC(=O)OC/C=C/Cn1nc(Br)c(=O)[nH]c1=O	> 100	–	> 100	–	> 100	> 100	> 100	> 100	> 100	> 100
CC(=O)Oc1c(OC(C)C)cc(=O)n2ccsc12	> 100	–	> 100	–	> 100	> 100	> 100	> 100	> 100	> 100
CCOC(=O)c1sc2nc(SC)nc3c2c1NCN3c1ccccc1Cl	> 100	–	> 100	–	> 100	> 100	> 100	> 100	> 100	> 100
O=C1CSC(c2cccc(Oc3ccccc3)c2)N1c1cc(Cl)ccc1Cl (stereo not given)	> 100	–	28.6	–	51.2	39.5	39.1	31.5	35.6	35.7
O=P1(C(O)c2ccccc2)N(Cc2ccccc2)[C@@H]2CCCC[C@H]2N1Cc1ccccc1 (stereo not given in full)	> 100	–	50.4	–	91.3	97.1	43	> 100	> 100	> 100
O=C(CCc1ccccc1)NCCc1ccc(O)c(O)c1	> 100	–	> 100	–	> 89	> 100	> 69.5	> 100	> 49.8	28.5
O=C(NCc1ccc(Cl)c(Cl)c1)c1nc2ccccc2nc1NCc1ccc(Cl)c(Cl)c1	> 100	–	> 100	–	> 100	> 100	> 100	> 100	> 100	> 100
CC(=O)CC(=O)N1CCOC1=O	> 10	–	> 10	–	> 10	> 10	> 10	> 10	> 10	> 10
CC(C)S1=C2C(=O)CC(C)(C)CC2=Nc2ccccc21 (stereo not given)	> 100	–	> 100	–	> 100	> 100	> 100	> 100	> 100	> 100
CCCCCNC(=O)OC1CCn2c1nc1c2C(=O)C(C)=C(N2CC2)C1=O (stereo not given)	2.57	–	1.37	–	7.05	4.84	3.27	3.54	3.08	2.88
CCCSC1=N/C(=C\c2ccco2)C(=O)N1	> 100	–	> 100	–	> 100	> 100	> 100	> 100	> 100	> 100
CN1Cc2c(ccc3c2OCO3)[C@@H]2[C@H](O)Cc3cc4c(cc3[C@@H]21)OCO4	> 100	–	4.49	–	> 100	> 26.5	> 39.7	> 24	> 100	1.46
